Reference: article PMC2289219 (The Journal of Cell Biology, 1991)

Tests used:
cAMP levels = assay type: cell-based
Bovine brain ECs = assay type: cell-based
BBB = test system: BBB; set-up: species or system rats; details: rat, in vivo

## C=C[C@@]1(C)CC(=O)[C@]2(O)[C@@]3(C)[C@@H](O)CCC(C)(C)[C@@H]3[C@H](O)[C@H](OC(C)=O)[C@@]2(C)O1 [forskolin]
cAMP levels
  Increase in cAMP levels: two to threefold increase
Bovine brain ECs
  Effect on electrical resistance (agents that elevate cAMP): also effective

## 8-(4-chlorophenylthio)-adenosine-3':5' mono- phosphate, cyclic [CPTcAMP]
Bovine brain ECs
  Effect on electrical resistance (agents that elevate cAMP): increases rapidly

## calcitonin gene-related peptide
Bovine brain ECs
  Effect on electrical resistance (agents that elevate cAMP): also effective

## O=S(=O)(NCCNCC=Cc1ccc(Br)cc1)c1cccc2cnccc12 [H-89, N-[2-(p-bromocinnamylamino)ethyl]-5-isoquinolinesulfonamide]
Bovine brain ECs
  Effect of protein kinase inhibitors on resistance: decreased

## CN[C@@H]1C[C@H]2O[C@@](C)([C@@H]1OC)n1c3ccccc3c3c4c(c5c6ccccc6n2c5c31)C(=O)NC4 [staurosporine]
BBB
  Increase in ability of peripherally administered BSA to enter the brain: three to fivefold
  Increase in ability of peripherally administered sucrose to enter the brain: three to fivefold

## PDGF
Bovine brain ECs
  Whether the factor accounts for the activity of astrocyte CM: could not be accounted for fully

## Atrial natriuretic factor
Bovine brain ECs
  Effect on resistance (elevated cGMP): simi- lar effects

## OC[C@H]1O[C@@](CO)(O[C@H]2O[C@H](CO)[C@@H](O)[C@H](O)[C@H]2O)[C@@H](O)[C@@H]1O [sucrose]
Monolayers of brain ECs
  Flux across low resistance monolayers: much greater than that across high resistance monolayers

## RO20-1724
cAMP levels
  Increase in cAMP levels: two to threefold increase
Bovine brain ECs
  Effect on electrical resistance (agents that elevate cAMP): increases rapidly

## CC(C)NCC(O)COc1cccc2ccccc12 (centres unmarked) [propranolol]
Monolayers of brain ECs; Fig. 7 top, about 300 nM labeled tracer, apical to basolateral, 37
  Flux across high resistance monolayers: moved rapidly

## IGF-1
Bovine brain ECs
  Whether the factor accounts for the activity of astrocyte CM: could not be accounted for fully
